Earlier results on four compounds are cited in US5604233A, “Lactone stable formulation of 7-ethyl camptothecin and methods for uses thereof” (priority 1994, dated 1997).

For data set [1], the system named is preclinical tumor models. The following applies: cited from earlier work.
The conditions of data set [2]: cited from earlier work.
Data set [3] concerns L1210 leukemia. The following applies: 10-100 mg/kg intraperitoneally; cited from earlier work.
Data set [4] concerns topoisomerase I. The following applies: cited from earlier work.
The conditions of data set [5]: Phase II; cited from earlier work.
For data set [6] the following is noted: cited from earlier work. This is another data set of the same source.

Consider `CC[C@@]1(O)C(=O)OCc2c1cc1n(c2=O)Cc2cc3cc4c(cc3nc2-1)OCO4` [10,11 methylene dioxycamptothecin, 10,11 methylenedioxy camptothecin], for which the “antitumor activity in preclinical studies” value in data set [1] is recorded as “very active”.

As to `CCc1c2c(nc3ccccc13)-c1cc3c(c(=O)n1C2)COC(=O)C3(O)CC` (centres unmarked) [ECPT, 7-ethyl camptothecin], the “antitumor activity in preclinical studies” value in data set [1] was “broad anticancer activity”. Besides, the solubility in water result in data set [2] is on record as “insufficiently water soluble for clinical use”. In addition, in data set [3], the “results relative to CPT-11 under the same conditions” value was “inferior”. The “inhibition of Topoisomerase I” value in data set [4] is on record as “potent inhibitor”.

As to `CCC(O)(C(=O)O)c1cc2n(c(=O)c1CO)Cc1cc3ccccc3nc1-2` (centres unmarked) [sodium camptothecin], in data set [5], the “toxicity in Phase II studies” value is “unpredictable and severe myelosuppression, gastrointestinal toxicity, hemorrhagic cystitis, and alopecia”.

Consider `CC[C@@]1(O)C(=O)OCc2c1cc1n(c2=O)Cc2cc3c(CN(C)C)c(O)ccc3nc2-1` [topotecan], for which the “activity relative to parent compound” value in data set [6] (human, in vivo) is recorded as “retain significant activity of the parent compound”. Also, in data set [6] (relative to parent compound), the sporadic toxicities result is recorded as “less sporadic toxicities”.
